Key:
Format in all cases: in vivo
corn (Zea mays) [1] = test: Test A postemergence application, visual injury rating 0-100; details: for Corn plant response rating (0 to 100 scale): Postemergence, 16 g ai/ha, greenhouse 10 days, 0 no effect, 100 complete control
How it was run: (§1)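 Plants were grown in a loam soil-sand blend and treated with test chemical in a non-phytotoxic solvent mixture containing surfactant, either sprayed on soil preemergence or applied postemergence to 2-10 cm plants. After 10 days in a greenhouse, injury was scored visually against untreated controls, 0 meaning no effect and 100 complete control.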

[2] = system: horseweed (Erigeron canadensis); test: as above; details: for Horseweed plant response rating (0 to 100 scale): Postemergence, 16 g ai/ha, greenhouse 10 days, 0 no effect, 100 complete control
How it was run: as §1

[3] = system: palmer (palmer amaranth, palmer pigweed, Amaranthus palmeri); test: as above; details: for Pigweed, Palmer plant response rating (0 to 100 scale): Postemergence, 16 g ai/ha, greenhouse 10 days, 0 no effect, 100 complete control
How it was run: as §1

kochia (Bassia scoparia) [4] = test: as above; details: for Kochia plant response rating (0 to 100 scale): Postemergence, 16 g ai/ha, greenhouse 10 days, 0 no effect, 100 complete control
How it was run: as §1

soybean (Glycine max) [5] = test: as above; details: for Soybean plant response rating (0 to 100 scale): Postemergence, 16 g ai/ha, greenhouse 10 days, 0 no effect, 100 complete control
How it was run: as §1

[6] = system: green foxtail (Setaria viridis); test: as above; details: for Foxtail, Green plant response rating (0 to 100 scale): Postemergence, 16 g ai/ha, greenhouse 10 days, 0 no effect, 100 complete control
How it was run: as §1

[7] = system: galium (catchweed bedstraw, Galium aparine); test: as above; details: for Galium plant response rating (0 to 100 scale): Postemergence, 16 g ai/ha, greenhouse 10 days, 0 no effect, 100 complete control
How it was run: as §1

[8] = system: ryegrass, Italian (italian ryegrass, Lolium multiflorum); test: as above; details: for Ryegrass, Italian plant response rating (0 to 100 scale): Postemergence, 16 g ai/ha, greenhouse 10 days, 0 no effect, 100 complete control
How it was run: as §1

[9] = system: ragweed (common ragweed, Ambrosia artemisiifolia); test: as above; details: for Ragweed plant response rating (0 to 100 scale): Postemergence, 16 g ai/ha, greenhouse 10 days, 0 no effect, 100 complete control
How it was run: as §1

[10] = system: barnyardgrass (Echinochloa crus-galli); test: as above; details: for Barnyardgrass plant response rating (0 to 100 scale): Postemergence, 16 g ai/ha, greenhouse 10 days, 0 no effect, 100 complete control
How it was run: as §1

[11] = system: wheat (Triticum aestivum); test: as above; details: for Wheat plant response rating (0 to 100 scale): Postemergence, 16 g ai/ha, greenhouse 10 days, 0 no effect, 100 complete control
How it was run: as §1

[12] = system: blackgrass (Alopecurus myosuroides); test: as above; details: for Blackgrass plant response rating (0 to 100 scale): Postemergence, 16 g ai/ha, greenhouse 10 days, 0 no effect, 100 complete control
How it was run: as §1

[13] = system: oat, wild (wild oat, Avena fatua); test: as above; details: for Oat, Wild plant response rating (0 to 100 scale): Postemergence, 16 g ai/ha, greenhouse 10 days, 0 no effect, 100 complete control
How it was run: as §1

rice (Oryza sativa) = test: Test B flooded paddy test, visual plant response rating 0-100; details: 250 g ai/ha, Flood, applied to paddy water, evaluated after 13 days
How it was run: (§2)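 2-leaf plants; flood 3 cm over soil; compound dosed into paddy water; depth kept constant; greenhouse 13 d; visual scoring vs controls. Dash = no result.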

[14] = system: ducksalad (Heteranthera limosa); test: as above; details: 250 g ai/ha, Flood, applied to paddy water, evaluated after 13 days
How it was run: as §2

[15] = system: sedge, umbrella (small-flower umbrella sedge, Cyperus difformis); test: as above; details: 250 g ai/ha, Flood, applied to paddy water, evaluated after 13 days
How it was run: as §2

[16] = system: barnyardgrass (Echinochloa crusgalli); test: as above; details: 250 g ai/ha, Flood, applied to paddy water, evaluated after 13 days
How it was run: as §2

corn (Zea mays) [17] = test: Test A preemergence soil spray, visual injury rating 0-100; details: 10 days; for Corn plant response rating: 16 g ai/ha, 0 to 100 scale
How it was run: as §1

[18] = system: palmer (palmer amaranth, palmer pigweed, Amaranthus palmeri); test: as above; details: 10 days; for Pigweed, Palmer plant response rating: 16 g ai/ha, 0 to 100 scale
How it was run: as §1

kochia (Bassia scoparia) [19] = test: as above; details: 10 days; for Kochia plant response rating: 16 g ai/ha, 0 to 100 scale
How it was run: as §1

soybean (Glycine max) [20] = test: as above; details: 10 days; for Soybean plant response rating: 16 g ai/ha, 0 to 100 scale
How it was run: as §1

[21] = system: green foxtail (Setaria viridis); test: as above; details: 10 days; for Foxtail, Green plant response rating: 16 g ai/ha, 0 to 100 scale
How it was run: as §1

[22] = system: ryegrass, Italian (italian ryegrass, Lolium multiflorum); test: as above; details: 10 days; for Ryegrass, Italian plant response rating: 16 g ai/ha, 0 to 100 scale
How it was run: as §1

[23] = system: ragweed (common ragweed, Ambrosia artemisiifolia); test: as above; details: 10 days; for Ragweed plant response rating: 16 g ai/ha, 0 to 100 scale
How it was run: as §1

[24] = system: barnyardgrass (Echinochloa crus-galli); test: as above; details: 10 days; for Barnyardgrass plant response rating: 16 g ai/ha, 0 to 100 scale
How it was run: as §1

[25] = system: wheat (Triticum aestivum); test: as above; details: 10 days; for Wheat plant response rating: 16 g ai/ha, 0 to 100 scale
How it was run: as §1

[26] = system: blackgrass (Alopecurus myosuroides); test: as above; details: 10 days; for Blackgrass plant response rating: 16 g ai/ha, 0 to 100 scale
How it was run: as §1

[27] = system: oat, wild (wild oat, Avena fatua); test: as above; details: 10 days; for Oat, Wild plant response rating: 16 g ai/ha, 0 to 100 scale
How it was run: as §1

[28] = 62 g ai/ha, postemergence, 10 days, 0 = no effect, 100 = complete control
[29] = 62 g ai/ha, 0 = no effect, 100 = complete control

Structure (SMILES): CC1(C(=O)NC2CC(C(=O)OCC(F)(F)F)C2)CN(c2cc(F)cc(F)c2)C(=O)O1 (centres unmarked) [Compound 121]
- Corn plant response rating (0-100) (corn (Zea mays) [1]; [28]): 100
- Corn plant response rating (0 to 100 scale) (corn (Zea mays) [1]): 100
- Horseweed plant response rating (0-100) [2, 28]: 10
- Horseweed plant response rating (0 to 100 scale) [2]: 0
- Pigweed, Palmer plant response rating (0-100) [3, 28]: 70
- Pigweed, Palmer plant response rating (0 to 100 scale) [3]: 0
- Kochia plant response rating (0-100) (kochia (Bassia scoparia) [4]; [28]): 70
- Kochia plant response rating (0 to 100 scale) (kochia (Bassia scoparia) [4]): 10
- Soybean plant response rating (0-100) (soybean (Glycine max) [5]; [28]): 70
- Soybean plant response rating (0 to 100 scale) (soybean (Glycine max) [5]): 50
- Foxtail, Green plant response rating (0-100) [6, 28]: 90
- Foxtail, Green plant response rating (0 to 100 scale) [6]: 70
- Galium plant response rating (0-100) [7, 28]: 60
- Galium plant response rating (0 to 100 scale) [7]: 30
- Ryegrass, Italian plant response rating (0-100) [8, 28]: 70
- Ryegrass, Italian plant response rating (0 to 100 scale) [8]: 20
- Ragweed plant response rating (0-100) [9, 28]: 0
- Ragweed plant response rating (0 to 100 scale) [9]: 0
- Barnyardgrass plant response rating (0-100) [10, 28]: 100
- Barnyardgrass plant response rating (0 to 100 scale) [10]: 60
- Wheat plant response rating (0-100) [11, 28]: 90
- Wheat plant response rating (0 to 100 scale) [11]: 90
- Blackgrass plant response rating (0-100) [12, 28]: 100
- Blackgrass plant response rating (0 to 100 scale) [12]: 90
- Oat, Wild plant response rating (0-100) [13, 28]: 90
- Oat, Wild plant response rating (0 to 100 scale) [13]: 40
- Plant response rating, Rice (0 to 100 scale, 0 is no effect and 100 is complete control) (rice (Oryza sativa)): 0
- Plant response rating, Ducksalad (0 to 100 scale, 0 is no effect and 100 is complete control) [14]: 0
- Plant response rating, Sedge, Umbrella (0 to 100 scale, 0 is no effect and 100 is complete control) [15]: 0
- Plant response rating, Barnyardgrass (0 to 100 scale, 0 is no effect and 100 is complete control) [16]: 0
- Corn plant response rating (corn (Zea mays) [17]): 20
- Corn plant response rating (0-100) (corn (Zea mays) [17]; [29]): 90
- Pigweed, Palmer plant response rating [18]: 0
- Pigweed, Palmer plant response rating (0-100) [18, 29]: 70
- Kochia plant response rating (kochia (Bassia scoparia) [19]): 0
- Kochia plant response rating (0-100) (kochia (Bassia scoparia) [19]; [29]): 70
- Soybean plant response rating (soybean (Glycine max) [20]): 0
- Soybean plant response rating (0-100) (soybean (Glycine max) [20]; [29]): 0
- Foxtail, Green plant response rating [21]: 0
- Foxtail, Green plant response rating (0-100) [21, 29]: 90
- Ryegrass, Italian plant response rating [22]: 50
- Ryegrass, Italian plant response rating (0-100) [22, 29]: 90
- Ragweed plant response rating [23]: 0
- Ragweed plant response rating (0-100) [23, 29]: 0
- Barnyardgrass plant response rating [24]: 0
- Barnyardgrass plant response rating (0-100) [24, 29]: 80
- Wheat plant response rating [25]: 40
- Wheat plant response rating (0-100) [25, 29]: 80
- Blackgrass plant response rating [26]: 50
- Blackgrass plant response rating (0-100) [26, 29]: 90
- Oat, Wild plant response rating [27]: 90
- Oat, Wild plant response rating (0-100) [27, 29]: 90

Structure (SMILES): CC1(C(=O)NC2C=CC(C(=O)O)C2)CN(c2cc(F)c(F)c(F)c2)C(=O)O1 (centres unmarked) [Compound 123]
- Corn plant response rating (0 to 100 scale) (corn (Zea mays) [1]): 70
- Horseweed plant response rating (0 to 100 scale) [2]: 0
- Pigweed, Palmer plant response rating (0 to 100 scale) [3]: 20
- Kochia plant response rating (0 to 100 scale) (kochia (Bassia scoparia) [4]): 0
- Soybean plant response rating (0 to 100 scale) (soybean (Glycine max) [5]): 60
- Foxtail, Green plant response rating (0 to 100 scale) [6]: 30
- Galium plant response rating (0 to 100 scale) [7]: 30
- Ryegrass, Italian plant response rating (0 to 100 scale) [8]: 60
- Ragweed plant response rating (0 to 100 scale) [9]: 0
- Barnyardgrass plant response rating (0 to 100 scale) [10]: 60
- Wheat plant response rating (0 to 100 scale) [11]: 80
- Blackgrass plant response rating (0 to 100 scale) [12]: 90
- Oat, Wild plant response rating (0 to 100 scale) [13]: 60
- Plant response rating, Rice (0 to 100 scale, 0 is no effect and 100 is complete control) (rice (Oryza sativa)): 10
- Plant response rating, Ducksalad (0 to 100 scale, 0 is no effect and 100 is complete control) [14]: 55
- Plant response rating, Sedge, Umbrella (0 to 100 scale, 0 is no effect and 100 is complete control) [15]: 0
- Plant response rating, Barnyardgrass (0 to 100 scale, 0 is no effect and 100 is complete control) [16]: 0
- Corn plant response rating (corn (Zea mays) [17]): 0
- Pigweed, Palmer plant response rating [18]: 0
- Kochia plant response rating (kochia (Bassia scoparia) [19]): 0
- Soybean plant response rating (soybean (Glycine max) [20]): 0
- Foxtail, Green plant response rating [21]: 0
- Ryegrass, Italian plant response rating [22]: 0
- Ragweed plant response rating [23]: 0
- Barnyardgrass plant response rating [24]: 0
- Wheat plant response rating [25]: 80
- Blackgrass plant response rating [26]: 0
- Oat, Wild plant response rating [27]: 10

From US20260285850A1, “SUBSTITUTED OXAZOLIDINONES AND IMIDAZOLINONES AS HERBICIDES” (FMC CORPORATION, priority 2023, published 2026)
